Like-named read-outs stand apart in the source and are kept apart here.
Legend:
[1] = target: T1, TACE (catalytic domain of the recombinant TACE protein) (Homo sapiens, UniProt P78536); assay: TACE FRET assay using TACE Cat; assay type: biochemical; conditions: FRET, pro-TNF-α substrate peptide; read-out: TACE IC50
T1 construct: The catalytic domain of the recombinant TACE protein was expressed and purified; made in house
How it was run: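 Recombinant TACE catalytic domain (1 ug/ml) pre-incubated 10 min at room temperature with inhibitor in 50 mM Tris-HCl pH 7.4, 25 mM NaCl, 4% glycerol, 0.005% Brij 35; Abz/Dpa pro-TNF-α peptide substrate added, fluorescence (Ex 320/Em 420) followed 10 min; IC50 from initial rates by Hill fit.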

[2] = target: T2, recombinant human catalytic domain of MMP-1 (Homo sapiens, UniProt P03956); assay: In-vitro fluorescence assay of MMP-1 activity; assay type: biochemical
T2 construct: The source of enzyme in the assay was the recombinant human catalytic domain of MMP-1
T2 sequence (P03956 100-269 limits assumed): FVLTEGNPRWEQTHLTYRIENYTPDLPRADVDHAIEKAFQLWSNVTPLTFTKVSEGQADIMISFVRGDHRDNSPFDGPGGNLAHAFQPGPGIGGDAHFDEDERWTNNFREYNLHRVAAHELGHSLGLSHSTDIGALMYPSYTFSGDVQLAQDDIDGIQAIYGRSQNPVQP
Protocol: (§1) A continuous assay was used in which the substrate is a synthetic peptide containing a fluorescent group (7-methoxycoumarin; Mca) that is quenched by energy transfer to a 2,4-dinitrophenyl group. […] The substrate used was Mca-PQGL-(3-[2,4-dinitrophenyl]-L-2,3-diaminopropionyl)-AR-OH (denoted as Wammp-5, custom synthesized by AnaSpec, Inc.). The assay buffer consisted of 50 mM Hepes (pH 7.4), 100 mM NaCl, 5 mM CaCI2, and 0.005% Brij-35. Each well of black polystyrene 96-well plates contained a 200 μL reaction mixture consisting of assay buffer, purified MMP (final concentration of 25 ng/ml, prepared by diluting with the assay buffer), and varied concentrations of inhibitor (prepared by serially diluting a given inhibitor in DMSO in 96-well polypropylene plate). […] The enzymatic reactions were initiated by adding the substrate to a final concentration of 20 μM, and mixing 10 times with a pipette. The final DMSO concentration in the assay was 6.0%.
(§2) Plots of the inhibitor concentration vs. the percent inhibition were fit to the following equation: y=(a−d)/[1+(x/c)^b]+d, a general sigmoidal curve with Hill slope, a to d. x is the inhibitor concentration under test. y is the percent inhibition. a is the limiting response as x approaches zero. As x increases without bound, y tends toward its limit d. c is the inflection point (IC50) for the curve. That is, y is halfway between the lower and upper asymptotes when x=c. b is the slope factor or Hill coefficient.

recombinant human MMP-2 = target: T3, recombinant human MMP-2 (Homo sapiens, UniProt P08253); assay: In-vitro fluorescence assay of MMP-2 activity; assay type: biochemical
T3 sequence (P08253 110-660): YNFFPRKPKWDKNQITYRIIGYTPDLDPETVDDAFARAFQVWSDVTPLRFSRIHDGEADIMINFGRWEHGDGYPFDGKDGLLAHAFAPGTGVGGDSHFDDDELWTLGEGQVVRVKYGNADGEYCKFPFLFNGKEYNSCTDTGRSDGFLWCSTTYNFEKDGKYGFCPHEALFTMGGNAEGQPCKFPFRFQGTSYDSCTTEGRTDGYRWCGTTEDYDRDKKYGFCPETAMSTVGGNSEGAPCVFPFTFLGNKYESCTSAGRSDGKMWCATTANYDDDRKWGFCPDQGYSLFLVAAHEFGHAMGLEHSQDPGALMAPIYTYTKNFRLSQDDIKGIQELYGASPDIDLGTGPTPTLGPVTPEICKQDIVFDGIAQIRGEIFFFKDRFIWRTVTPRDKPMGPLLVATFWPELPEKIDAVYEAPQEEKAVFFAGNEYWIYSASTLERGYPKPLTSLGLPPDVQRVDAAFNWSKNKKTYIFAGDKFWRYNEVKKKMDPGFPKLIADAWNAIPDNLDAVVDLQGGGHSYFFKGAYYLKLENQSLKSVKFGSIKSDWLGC
Protocol: as §1, §2

MMP-13 = MMP-13 (Homo sapiens, UniProt P45452); assay: In-vitro fluorescence assay of MMP-13 activity; assay type: biochemical
Protocol: See Knight, C. […] […].
The method was essentially the same as for the determination of MMP-1 activity, described above, except that the final concentration of purified MMP in the assay was 0.5 nM, prepared by diluting with the assay buffer.

[3] = target: T4, recombinant human catalytic domain of MMP-14 (Homo sapiens, UniProt P50281); assay: In-vitro fluorescence assay of MMP-14 activity; assay type: biochemical
T4 construct: 20 kDa; purchased Chemicon International, Inc. CC1041
Protocol: The results were analyzed as described for MMP-13 activity, above.

[4] = system: LPS-induced TNF-α secretion in human whole blood; assay: Human whole blood assay for LPS-induced TNF-α secretion; assay type: cell-based; conditions: LPS 100 ng/ml, read-out: TNF Secretion HWB IC50
How it was run: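 Fresh blood from healthy volunteers pre-incubated 1 h at 37° C with compound (final DMSO <0.2%), then stimulated with 100 ng/ml LPS for 4 h or overnight at 37° C with rotation. Supernatant TNF-α measured by ELISA; percent inhibition and IC50 derived by curve fitting.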

[5] = system: TNF-α secretion in Raw 264.7 cells; assay: Cell-based assay for inhibition of TNF-α secretion in Raw cells; conditions: Mus musculus, RAW264.7, LPS 100 ng/ml, 4 hr
How it was run: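 Confluent Raw 264.7 cells were seeded overnight, refed, and pre-incubated 1 hr with compound (0.2% final DMSO), then stimulated with LPS at 100 ng/ml final for 4 hr at 37° C. Supernatant TNF-α measured by ELISA; % inhibition and IC50 by curve fitting.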

T1 sequence (P78536 223-474 limits assumed): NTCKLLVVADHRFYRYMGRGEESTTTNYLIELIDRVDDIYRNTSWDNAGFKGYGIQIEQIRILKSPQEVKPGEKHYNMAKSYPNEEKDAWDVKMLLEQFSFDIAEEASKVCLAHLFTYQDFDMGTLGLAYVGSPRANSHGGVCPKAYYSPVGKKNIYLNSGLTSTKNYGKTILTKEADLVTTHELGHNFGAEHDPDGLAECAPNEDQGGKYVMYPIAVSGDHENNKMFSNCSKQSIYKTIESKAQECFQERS

Structure (SMILES) | IC50 [1] [nM] | IC50 [2] [nM] | IC50 (recombinant human MMP-2) [nM] | IC50 (MMP-13) [nM] | IC50 [3] [nM] | IC50 [4] [nM] | IC50 [5] [nM] | IC50 ([4]; Homo sapiens) [nM]
Cc1cc(COc2ccc(S(=O)(=O)N(C)C3C4CCC(C4)C3C(=O)NO)cc2)c2ccccc2n1 (single isomer, unassigned) [Example 1a, exo-N-hydroxy-3-[methyl({4-[(2-methylquinolin-4-yl)methoxy]phenyl}sulfonyl)amino]bicyclo[2.2.1]heptane-2-carboxamide] | 1.3 | > 16700 | 4580 | > 16700 | > 16700 | 2800 |  | 
Cc1cc(COc2ccc(S(=O)(=O)N(C)C3C4CCC(C4)C3C(=O)NO)cc2)c2ccccc2n1 (single isomer, unassigned) [Example 1b, exo-N-hydroxy-3-[methyl({4-[(2-methylquinolin-4-yl)methoxy]phenyl}sulfonyl)amino]bicyclo[2.2.1]heptane-2-carboxamide] | 43 | > 16700 | > 16700 | > 16700 | > 16700 | 14000 | 250 | 
Cc1cc(COc2ccc(S(=O)(=O)N(C)[C@@H]3[C@H]4CC[C@H](C4)[C@@H]3C(=O)NO)cc2)c2ccccc2n1 (racemic) [Example 1, exo-N-Hydroxy-3-[methyl({4-[(2-methylquinolin-4-yl)methoxy]phenyl}sulfonyl)amino]bicyclo[2.2.1]heptane-2-carboxamide] | 2 |  | 6180 |  | > 16700 |  | 18 | 3000
CC(=O)N1CCC(C(=O)NO)C(NS(=O)(=O)c2ccc(OCc3cc(C)nc4ccccc34)cc2)C1 (mixture of isomers) [Example 36, 1-Acetyl-3-[4-(2-methyl-quinolin-4-ylmethoxy)-benzenesulfonylamino]-piperidine-4-carboxylic acid hydroxyamide] | 1.3 | > 16700 | > 16700 | > 16700 |  |  | 202 | 1000
Cc1cc(COc2ccc(S(=O)(=O)N[C@@H]3CN(C=O)CCC3C(=O)NO)cc2)c2ccccc2n1 (mixture of isomers) [Example 34, 1-Formyl-3-[4-(2-methyl-quinolin-4-ylmethoxy)-benzenesulfonylamino]-piperidine-4-carboxylic acid hydroxyamide] | 1 | > 16700 | > 16700 | > 16700 |  |  | 21 | 500
Cc1cc(COc2ccc(S(=O)(=O)N(C)[C@H]3[C@@H](C(=O)NO)[C@@H]4CC[C@H]3O4)cc2)c2ccccc2n1 (relative stereo) [Example 3, exo-N-Hydroxy-3-[methyl({4-[(2-methylquinolin-4-yl)methoxy]phenyl}sulfonyl)amino]-7-oxabicyclo[2.2.1]heptane-2-carboxamide] | 1.1 | > 16700 | 4120 | 3310 | > 16700 |  | 10 | 2200
Cc1cc(COc2ccc(S(=O)(=O)N[C@@H]3[C@H]4CC[C@H](C4)[C@@H]3C(=O)NO)cc2)c2ccccc2n1 (relative stereo) [Example 4, exo-N-Hydroxy-3-[({4-[(2-methylquinolin-4-yl)methoxy]phenyl}sulfonyl)amino]bicyclo[2.2.1]heptane-2-carboxamide] | < 0.6 | > 16700 | > 16700 | 6380 | > 16700 |  | 18 | 1600
Cc1cc(COc2ccc(S(=O)(=O)N[C@@H]3CCN(S(=O)(=O)C(C)C)C[C@]3(C)C(=O)NO)cc2)c2ccccc2n1 [Example 52, (3S,4R)-N-hydroxy-1-(isopropylsulfonyl)-3-methyl-4-[({4-[(2-methylquinolin-4-yl)methoxy]phenyl}sulfonyl)amino]piperidine-3-carboxamide] | 2.4 |  | > 16700 | > 10000 |  |  | 762 | 37000
CC(=O)N1CC[C@@H](NS(=O)(=O)c2ccc(OCc3cc(C)nc4ccccc34)cc2)[C@@](C)(C(=O)NO)C1 [Example 47, (3S,4R)-1-acetyl-N-hydroxy-3-methyl-4-[({4-[(2-methylquinolin-4-yl)methoxy]phenyl}sulfonyl)amino]piperidine-3-carboxamide] | 6.4 |  | > 16700 | > 16700 |  |  | > 1000 | > 50000
Cc1cc(COc2ccc(S(=O)(=O)N[C@]3(C)CCCC[C@@H]3C(=O)NO)cc2)c2ccccc2n1 (racemic) [Example 60, (1S,2R)-N-hydroxy-2-methyl-2-[({4-[(2-methylquinolin-4-yl)methoxy]phenyl}sulfonyl)amino]cyclohexanecarboxamide (racemic)] | < 0.6 |  | > 16700 | > 16700 |  |  | 25 | 4900
CC[C@]1(C(=O)NO)CCC[C@H]1NS(=O)(=O)c1ccc(OCc2cc(C)nc3ccccc23)cc1 [Example 56, (1S,2R)-N-hydroxy-1-ethyl-2-[({4-[(2-methylquinolin-4-yl)methoxy]phenyl}sulfonyl)amino]cyclopentanecarboxamide] | 2.3 |  | > 10000 | > 10000 |  |  | > 1000 | 48000
